Structures are written as SMILES. Like-named read-outs stand apart in the source and are kept apart here.

What all share (type): cell-based
The subject of data set [1] is RSV A2 strain. Put plainly: RSV A2-induced CPE in Hep2 cells. Particulars: human respiratory syncytial virus; for IC50: HEp-2, 120 h, read-out: RSV A2 CPE IC50; for inhibition at 0.1 µg/mL: at 0.1 μg/mL. Here is the method:
(§1) Biological Testing: Experimental Methods Assessment of RSV Induced CPE in Hep2 Cells
(§2) Hep2 cells were seeded (10^3/well/50 μL) in 384-well plates (Catalogue number 353962, BD Falcon, Oxford, UK) in 5% serum free-DMEM containing 2 mM L-glutamine and 1 mM sodium pyruvate one day before infection. RSV A2 strain (#0709161v, NCPV, Public Health England, Wiltshire) or RSV B Washington strain (VR-1580, ATCC, Manassas, Va. 20108) virus solutions were prepared in serum free-DMEM with 2 mM L-glutamine and 1 mM sodium pyruvate, and then added (50 μL/well) to achieve a final virus concentration of 1 MOI for RSV A and 0.1MOI for RSV B. Simultaneously test compounds (0.5 μL DMSO solution) were added to 100 μL of Hep2 cell culture with virus solution to provide a final DMSO solution of 0.5%. Plates were incubated (37° C./5% CO2) for 5 days for studies using RSV A2 strain or 6 days for those using RSV B strain, and then resazurin sodium salt (5 μL of 0.03% solution; Sigma-Aldrich, Dorset, UK) was added to each well and the plate incubated for a further 6 hr (37° C. and 5% CO2). The fluorescence of each well [545 nm (excitation)/590 nm (emission)] was determined using a multi-scanner (Clariostar: BMG, Buckinghamshire, UK). The percentage inhibition for each well was calculated and the IC50, IC75 and IC90 values were calculated from the concentration-response curve generated for each test compound.

Data set [2] in a line: Cell viability: resazurin assay in Hep2 cells. As to conditions: human, 5 days incubation. As for the experimental part:
Cell Viability: Resazurin Assay Hep2 cells were seeded in 384-well plates (10^3/well/50 μL; BD Falcon Ref 353962) in FBS DMEM (5%, containing 2 mM L-glutamine and 1 mM sodium pyruvate) one day before experimentation. Serum-free DMEM (50 μL) was added to test wells while for control wells the media was removed and sterile water (100 μL) was added. Test compounds (0.5 μL DMSO solution) were added to give a final DMSO concentration of 0.5%. Hep2 cells were incubated with each test compound for 5 days (37° C./5% CO2 in 5% FBS) and then resazurin stock solution (5 μL; 0.03%) was added to each well and the plate incubated further for a further 6 hrs (37° C./5% CO2). The fluorescence of each well at 545 nm (excitation) and 590 nm (emission) was determined using a multi-scanner (Clariostar: BMG Labtech). The percentage loss of cell viability was calculated for each well relative to vehicle (0.5% DMSO) treatment. Where appropriate, a CC50 value was calculated from the concentration-response curve generated from the concentration-response curve for each test compound.
A general note: The colour change of resazurin is a common sign of viable cells or microbes.

The test system of data set [3] is RSV A2 F-protein expression. Put plainly: RSV A2 F-protein expression in BEAS2B bronchial epithelial cells. Particulars: human respiratory syncytial virus, BEAS-2B, 72 h, read-out: RSV A2 F-protein IC50. Here is the method:
Assessment of RSV F Protein Expression in BEAS2B Bronchial Epithelial Cells
An early event which follows the infection of epithelial cells by RSV is the expression of RSV F-protein on the cells' surface. BEAS2B cells (SV40-immortalised human bronchial epithelial cell line) were grown in 96 well plates. Once more than 70% confluent, cells were infected with RSV A2 (#0709161v, NCPV, Public Health England, Wiltshire) at an MOI of 0.01 in clear RPMI-1640 medium (Life technologies, Paisley, UK) with 2% FBS (Life technologies, Paisley, UK), and incubated for 3 days (37° C./5% CO2).
Supernatant was aspirated and the cells were fixed with 4% formaldehyde (100 μL in PBS solution) for 20 min, washed 3 times with washing buffer (200 μL; PBS containing 0.05% Tween-20) and incubated with blocking solution (100 μL; 5% Marvel milk in PBS) for 1 hr. Cells were then washed with washing buffer (200 μL) and incubated for 1 hr at 37° C. with anti-RSV (2F7; mouse monoclonal, lot 160290, Cat. No. ab43812, Abcam plc, Cambridge, UK) F-fusion protein antibody (50 μL; prepared at a 1:1000 dilution in 5% milk/PBS-tween). After washing, cells were incubated with an HRP-conjugated anti-mouse IgG antibody (50 μL prepared at a 1:2000 dilution in 5% milk in PBS; lot 00095437, Cat. No. P0447, Dako UK Ltd, Cambridgeshire, UK) for 1 hr. Cells were washed twice with washing buffer and once with PBS. TMB substrate (100 μL; substrate reagent pack lot 320436, Cat. No. DY999, R&D Systems, Inc. Abingdon, UK) was then added and the reaction was stopped by the addition of aq sulfuric acid (50 μL; 2N). The resultant signal was determined colourimetrically (OD: 450 nm with a reference wavelength of 655 nm) in a microplate reader (Multiskan FC®, ThermoFisher Scientific). Cells were then washed and 1% crystal violet solution (50 μL; lot SLB4576, Cat. No. HT90132-1L, Sigma-Aldrich) was applied for 30 min. After washing with PBS (200 μL) 3 times, 1% SDS (100 μL) was added to each well, and plates were shaken lightly for 1 hr prior to reading the absorbance at 595 nm. The measured OD450-655 readings were corrected for cell number by dividing the OD450-655 by the OD595 readings. The percentage inhibition for each well was calculated and the IC50 value derived from the concentration-response curve generated for each test compound.

Data set [4] relates to RSV B Washington strain. The data set is described as follows: RSV B-induced CPE in Hep2 cells. Particulars: human respiratory syncytial virus; for IC50: HEp-2, 144 h, read-out: RSV B CPE IC50. Here is the method: as §1, §2
Setting [5] is: Hep2 cells, RSV A2 1 MOI, 5 days, resazurin.
Where [6] appears, read: HEp-2, Hep2 cells, read-out: RSV A2 CPE % Inhibition.
Where [7] appears, read: Hep2 cells, RSV B Washington 0.1 MOI, 6 days, resazurin.
The mark [8] stands for this setting: HEp-2, Hep2 cells, at 1 μg/mL, read-out: RSV B CPE % Inhibition.
[9] abbreviates: HEp-2, Hep2 cells, at 0.01 μg/mL (footnote 2), read-out: RSV A2 CPE % Inhibition.

By IC50 is commonly meant the concentration at which inhibition is half-maximal. Broadly, the inhibition is how much of the control response was suppressed. What is called CC50 is the concentration at which the toxic effect on the cells reaches its halfway point. The low end stands for harm at low concentration, the high end for better tolerance by the cells. As to `O=C(Nc1ccc(C(=O)N2CCc3cc(-c4nc5ccccc5[nH]4)sc3-c3ccccc32)cc1)c1cccnc1N1CC2(CCOCC2)C1` [Example 7], the IC50 in data set [1] (setting [5]) was 0.12 nM; in data set [3], 0.94 nM; in data set [4] (setting [7]), 28.7 nM. In data set [1] (setting [6]), the inhibition at 0.1 µg/mL was found to be 100%. The CC50 at 5 days in data set [2] was greater than 15000 nM. Further, the inhibition at 1 µg/mL in data set [4] (setting [8]) turned out to be 100%.
`O=C(Nc1ccc(C(=O)N2CCc3cc(-c4nc5ccccc5[nH]4)sc3-c3ccccc32)cc1)c1cc(C2CC2)cnc1N1CC2(CCOCC2)C1` [Example 6, N-(4-(2-(1H-Benzo[d]imidazol-2-yl)-5,6-dihydro-4H-benzo[b]thieno[2,3-d]azepine-6-carbonyl)phenyl)-5-cyclopropyl-2-(7-oxa-2-azaspiro[3,5]nonan-2-yl)nicotinamide]: the concentration for half-maximal inhibition (IC50) in data set [1] (setting [5]) came to 2.6 nM; in data set [3] it was 0.22 nM; in data set [4] (setting [7]), 14.9 nM. The inhibition at 0.01 µg/mL in data set [1] (setting [9]) came to 100%. For the same compound, the half-maximal cytotoxic concentration (CC50) at 5 days in data set [2] was greater than 14100 nM. Moreover, in data set [4] (setting [8]), the inhibition at 1 µg/mL is 100%.
In the case of `Cc1cnc(N2CC3(CCOCC3)C2)c(C(=O)Nc2ccc(C(=O)N3CCc4cc(-c5nc6cccc(F)c6[nH]5)sc4-c4ccccc43)cc2)c1` [Example 14, N-(4-(2-(7-fluoro-1H-benzo[d]imidazol-2-yl)-5,6-dihydro-4H-benzo[b]thieno[2,3-d]azepine-6-carbonyl)phenyl)-5-methyl-2-(7-oxa-2-azaspiro[3.5]nonan-2-yl)nicotinamide], the values for the half-inhibitory concentration (IC50) in data set [1] (setting [5]), in data set [3] and in data set [4] (setting [7]) were 0.24 nM, 0.31 nM and 0.99 nM, respectively. Also, in data set [1] (setting [9]), the inhibition at 0.01 µg/mL is 93%. This compound yielded a CC50 at 5 days in data set [2] greater than 14300 nM. Also, the inhibition at 1 µg/mL in data set [4] (setting [8]) was determined as 100%.
As to `N#Cc1cccc2nc(-c3cc4c(s3)-c3ccccc3N(C(=O)c3ccc(NC(=O)c5cccnc5N5CC6(CCOCC6)C5)cc3)CC4)[nH]c12` [Example 12, N-(4-(2-(7-cyano-1H-benzo[d]imidazol-2-yl)-5,6-dihydro-4H-benzo[b]thieno[2,3-d]azepine-6-carbonyl)phenyl)-2-(7-oxa-2-azaspiro[3.5]nonan-2-yl)nicotinamide], the IC50 in data set [1] (setting [5]) is 0.94 nM; in data set [3] it was 0.21 nM; in data set [4] (setting [7]) it was 111 nM. In addition, in data set [1] (setting [6]), the inhibition at 0.1 µg/mL turned out to be 100%. The CC50 at 5 days in data set [2] is greater than 14500 nM. In data set [4] (setting [8]), the inhibition at 1 µg/mL is 100%.
On to `C#Cc1cnc(N2CC3(CCOCC3)C2)c(C(=O)Nc2ccc(C(=O)N3CCc4cc(-c5nc6ccccc6[nH]5)sc4-c4ccccc43)cc2)c1` [Example 5, N-(4-(2-(1H-Benzo[d]imidazol-2-yl)-5,6-dihydro-4H-benzo[b]thieno[2,3-d]azepine-6-carbonyl)phenyl)-5-ethynyl-2-(7-oxa-2-azaspiro[3,5]nonan-2-yl)nicotinamide], for which the IC50 was 6.9 nM in data set [1] (setting [5]), 0.11 nM in data set [3] and 36.1 nM in data set [4] (setting [7]). The inhibition at 0.01 µg/mL in data set [1] (setting [9]) was 100%. In data set [2], the half-maximal cytotoxic concentration (CC50) at 5 days is greater than 14500 nM. Moreover, the inhibition at 1 µg/mL in data set [4] (setting [8]) is 92%.
`Cc1ccc(C(=O)Nc2ccc(C(=O)N3CCc4cc(-c5nc6ccccc6[nH]5)sc4-c4ccccc43)cc2)c(N2CC3(CCOCC3)C2)n1` [Example 2, N-(4-(2-(1H-Benzo[d]imidazol-2-yl)-5,6-dihydro-4H-benzo[b]thieno[2,3-d]azepine-6-carbonyl)phenyl)-6-methyl-2-(7-oxa-2-azaspiro[3,5]nonan-2-yl)nicotinamide]: the IC50 in data set [1] (setting [5]) is 0.23 nM; in data set [3], 1.6 nM; in data set [4] (setting [7]), 9.6 nM. In addition, the inhibition at 0.01 µg/mL in data set [1] (setting [9]) amounted to 90%. Further, in data set [2], the CC50 at 5 days was greater than 14700 nM. Moreover, the inhibition at 1 µg/mL in data set [4] (setting [8]) amounted to 100%.
Regarding `CCc1cccc2nc(-c3cc4c(s3)-c3ccccc3N(C(=O)c3ccc(NC(=O)c5cc(C)cnc5N5CC6(CCOCC6)C5)cc3)CC4)[nH]c12` [Example 3, N-(4-(2-(7-Ethyl-1H-benzo[d]imidazol-2-yl)-5,6-dihydro-4H-benzo[b]thieno[2,3-d]azepine-6-carbonyl)phenyl)-5-methyl-2-(7-oxa-2-azaspiro[3.5]nonan-2-yl)nicotinamide], the results for the IC50 in data set [1], in data set [3] and in data set [4] were 2.6 nM, 0.78 nM and 8.6 nM, respectively. In data set [1] (HEp-2, read-out: RSV A2 CPE % Inhibition), the inhibition at 0.01 µg/mL turned out to be 100%. In data set [2], this compound yielded a CC50 at 5 days greater than 14100 nM. In addition, in data set [4] (HEp-2, read-out: RSV B CPE % Inhibition), the inhibition at 1 µg/mL worked out at 100%.
`O=C(Nc1ccc(C(=O)N2CCc3cc(-c4nc5cccc(F)c5[nH]4)sc3-c3ccccc32)cc1)c1cccnc1N1CC2(CCOCC2)C1` [Example 8, N-(4-(2-(7-fluoro-1H-benzo[d]imidazol-2-yl)-5,6-dihydro-4H-benzo[b]thieno[2,3-d]azepine-6-carbonyl)phenyl)-2-(7-oxa-2-azaspiro[3.5]nonan-2-yl)nicotinamide]: the IC50 in data set [1] (setting [5]) stood at 0.18 nM; in data set [4] (setting [7]), 26.8 nM. Moreover, the inhibition at 0.1 µg/mL in data set [1] (setting [6]) was 100%. This compound yielded a CC50 at 5 days in data set [2] greater than 14600 nM. In data set [4] (setting [8]), the inhibition at 1 µg/mL is 100%.

The values above are taken from patent US10160772B2, “5,6-dihydro-4H-benzo[b]thieno-[2,3-d]azepine derivatives” (PULMOCIDE LIMITED, priority 2014, dated 2018).
